Measurements taken from PMC6154694, “Absorption, Metabolic Stability, and Pharmacokinetics of Ginger Phytochemicals” (Molecules : A Journal of Synthetic Chemistry and Natural …, 2017).

What was measured:
[1] = Liver microsomal stability, dog; format: in vitro ADME, Beagle dog; conditions: protein 0.5 mg/mL
Procedure: Pooled liver microsomes from CD1 mouse, IGS Sprague-Dawley rat, Beagle dog, and mixed gender human were used for assays. Incubations (1 mL) consisted of liver microsomes (0.5 mg/mL), NADPH (1 mM) and 100 mM sodium phosphate buffer (pH 7.4). Following pre-incubation (10 min, 37 °C), reactions were initiated by spiking ACN/DMSO (80:20) stock solutions of GE phenolics (5 μL, 10 μM). Samples (100 μL) were withdrawn at 0, 5, 10, 15, 20 and 30 min and quenched with 200 μL acetonitrile containing internal standard. Concomitant NADPH-free control incubations were prepared similarly.

[2] = Mouse pharmacokinetic study of oral GE with and without ketoconazole, plasma with and without β-glucuronidase treatment; format: in vivo, male mice (C57BL6J); conditions: for Concentration Ratio (Total/Free) of GE Phenolics: GE administered group; for Concentration Ratio (Total/Free) of GE Phenolics / concentration at 0 h / concentration at 0.087 h / concentration at 0.167 h / concentration at 0.25 h / concentration at 0.5 h / concentration at 1 h / concentration at 2 h / concentration at 3 h / concentration at 4 h / concentration at 6 h / concentration at 8 h / concentration at 12 h: mouse plasma; for AUC(0-t) / Cmax / Tmax / concentration at 0 h / concentration at 0.087 h / concentration at 0.167 h / concentration at 0.25 h / concentration at 0.5 h / concentration at 1 h / concentration at 2 h / concentration at 3 h / concentration at 4 h / concentration at 6 h / concentration at 8 h / concentration at 12 h: male, C57BL6J; for AUC(0-t) / Cmax / Tmax: mouse, plasma, po, 250 mg/kg
Procedure: A solution formulation of GE was prepared by using 5% ethanol, 5% Tween 80, 40% polyethylene glycol, and 50% corn oil. The dose volume was 10 mL/kg and the dose administered was 250 mg/kg GE.
Pharmacokinetic study in male mice (C57BL6J, Harlan Laboratories, Indianapolis, IN, USA) was run with 36 animals in each group at a GE dose of 250 mg/kg with a dose volume of 10 mL/kg. One group was given GE alone and in the second group GE was co-administered with KTZ (50 mg/kg). A terminal sampling design was used to collect blood samples at 0 (pre-dose), 0.08, 0.16, 0.25, 0.5, 1, 2, 3, 4, 6, 8, and 12 h. At each time, 1 mL of blood was collected in ethylenediaminetetraacetic acid di-potassium salt (K2EDTA) tubes (BD Biosciences, Franklin Lakes, NJ, USA). Plasma was separated by centrifugation of samples at 4000 rpm for 10 min and stored below −60 °C till bioanalysis. All experiments were performed with approval from the Institutional Animal Care and Use Committee (IACUC, approval code: A14031). All animals were acclimatized for five days before dosing in the experimental area. Food and water was provided ad libitum throughout the study period. Animals were marked and housed (three per cage, n = 36 per group) in polypropylene cages and maintained in controlled environmental conditions with 12 h light and dark cycles. The temperature and humidity of the room was maintained between 22 ± 3 °C and 30% to 50%, respectively, and approximately 10–12 fresh air change cycles per hour.
To confirm the presence of GE glucuronide conjugates, plasma (100 μL) was treated with βgd (20 μL, 500 units) and incubated at 37 °C for 1 h. Each sample was analyzed twice with and without β-gd treatment. Samples without gde treatment were diluted with 20 μL of buffer. Total (conjugated + free) and free ginger phenolics data were reported following bioanalysis.
All in vitro and in vivo samples were processed by protein precipitation method. An aliquot (100 μL) of the sample was spiked with 200 μL of acetonitrile containing dihydrocapsaicin as internal standard (IS) and vortex mixed for 3 min. The tubes were centrifuged at 12,000 rpm for 10 min and an aliquot of supernatant was transferred into autosampler vials for analysis. The stock solutions of 6G, 8G, 10G, and 6S were prepared in ACN/water (70:30) at 1 mg/mL. A calibration curve (CC) range of 2–2000 ng/mL was employed for the quantification of analytes and IS concentration was 150 ng/mL for each analysis. The CC consisted of blank, blank with IS and seven non-zero calibration standards. The calibration standards were within ±15% of the nominal concentration and lower limit of quantification was within ±20% of nominal. All samples were analyzed using liquid chromatography tandem mass spectrometry (LC-MS/MS) method (Agilent 6410 series, Santa Clara, CA, USA). A positive ionization mode with multiple reaction monitoring (MRM, m/z Q1/Q3) of 6G (m/z 277.1/177.1, retention time (RT) 2.0 min), 8G (m/z 305.1/177.1, RT 4.0 min), 10G (m/z 333.1/177.1, RT 7.7 min), 6S (m/z 277.1/137.1, RT 5.1 min), and IS (m/z 308.2/137.1, RT 3.4 min) was employed. The ion spray voltage was set at 3500 V, ionization temperature was set to 300 °C and drying gas flow rate was 10 L/min. Data acquisition and quantitation were performed using Mass Hunter software (Agilent Technologies, Wilmington, DE, USA). Separation was achieved using HP1100 series LC (Agilent Technologies) with an Agilent Zorbax reversed-phase (SB-C18, 2.1 × 50 mm, 5.0 μm) column. A gradient method was employed to separate the individual GE phenolics using mobile phase A (0.1% formic acid in water) and mobile phase B (Acetonitrile). The gradient elution method with 50% B at 0 min, 90% B at 5 min, held for 2.1 min, back to 50% B at 7.1 min with a flow rate of 0.2 mL/min. An injection volume of 2 μL was used for analysis. […]

[3] = 250 mg/kg GE + 50 mg/kg KTZ oral, +KTZ −βgd

For `CCCCCCCCCC(O)CC(=O)CCc1ccc(O)c(OC)c1` (centres unmarked) [10G, 10-gingerol], the remaining at 0.5 h, 10 µM ([1]; Beagle, pooled liver microsomes, pH 7.4, substrate 10 µM, n = 2, read-out: % Remaining at 30 min) was 45%, the “Intrinsic Clearance” value ([1]; dog liver microsomes, substrate 10 µM, 45 mg protein/g liver) was 5.6 mL/min/g Liver and the “AUClast Ratio” value ([2]; +KTZ +βgd, reference GE group co-administered with KTZ untreated with βgd) was 11. The “AUClast Ratio” value ([2]; +KTZ +βgd, reference GE group untreated with βgd) was 32, the “AUClast Ratio” value ([2]; +KTZ −βgd, reference GE group untreated with βgd) was 3 and the “Concentration Ratio (Total/Free) of GE Phenolics” value (shortened to “Concentration Ratio (Total/Free)”) ([2]; 0 h) was 0. For the same molecule, the “Concentration Ratio (Total/Free)” value ([2]; 0.087 h) was 5, the “Concentration Ratio (Total/Free)” value ([2]; 0.167 h) was 11 and the “Concentration Ratio (Total/Free)” value ([2]; 0.25 h) was 24. For the same molecule, the “Concentration Ratio (Total/Free)” value ([2]; 0.5 h) was 13, the “Concentration Ratio (Total/Free)” value ([2]; 1 h) was 8 and the “Concentration Ratio (Total/Free)” value ([2]; 2 h) was 19. For the same molecule, the “Concentration Ratio (Total/Free)” value ([2]; 3 h) was 9, the “Concentration Ratio (Total/Free)” value ([2]; 4 h) was 9 and the “Concentration Ratio (Total/Free)” value ([2]; 6 h) was 15. The “Concentration Ratio (Total/Free)” value ([2]; 8 h) was 0, the “Concentration Ratio (Total/Free)” value ([2]; 12 h) was 0 and the AUC(0-t) ([2]; 250 mg/kg GE oral, −βgd) was 61.8 ng·h/mL. For the same molecule, the Cmax ([2]; 250 mg/kg GE oral, −βgd) was 56 ng/mL, the Tmax ([2]; 250 mg/kg GE oral, −βgd) was 30 min and the AUC(0-t) [2, 3] was 174 ng·h/mL. It also gave a Cmax [2, 3] of 79 ng/mL, a Tmax [2, 3] of 30 min and a concentration at 0 h ([2]; 250 mg/kg GE oral, 0 h, −βgd) of 0 ng/mL. For the same molecule, the concentration at 0.087 h ([2]; 250 mg/kg GE oral, 0.087 h, −βgd) was 43.1 ± 35.3 ng/mL, the concentration at 0.167 h ([2]; 250 mg/kg GE oral, 0.167 h, −βgd) was 20.7 ± 6.15 ng/mL and the concentration at 0.25 h ([2]; 250 mg/kg GE oral, 0.25 h, −βgd) was 25.9 ± 4.43 ng/mL. The concentration at 0.5 h ([2]; 250 mg/kg GE oral, 0.5 h, −βgd) was 56 ± 31.6 ng/mL, the concentration at 1 h ([2]; 250 mg/kg GE oral, 1 h, −βgd) was 2.21 ± 0.62 ng/mL and the concentration at 2 h ([2]; 250 mg/kg GE oral, 2 h, −βgd) was 4.08 ± 1.61 ng/mL. It also gave a concentration at 3 h ([2]; 250 mg/kg GE oral, 3 h, −βgd) of 5.25 ± 1.06 ng/mL, a concentration at 4 h ([2]; 250 mg/kg GE oral, 4 h, −βgd) of 3.06 ± 1.19 ng/mL and a concentration at 6 h ([2]; 250 mg/kg GE oral, 6 h, −βgd) of 2.43 ± 1.16 ng/mL. The concentration at 8 h ([2]; 250 mg/kg GE oral, 8 h, −βgd) was 5.04 ± 5.89 ng/mL, the concentration at 12 h ([2]; 250 mg/kg GE oral, 12 h, −βgd) was 0.62 ± 0.72 ng/mL and the concentration at 0 h ([2]; 250 mg/kg GE with 50 mg/kg ketoconazole oral, 0 h, −βgd) was 0 ng/mL. The concentration at 0.087 h ([2]; 250 mg/kg GE with 50 mg/kg ketoconazole oral, 0.087 h, −βgd) was 0 ng/mL, the concentration at 0.167 h ([2]; 250 mg/kg GE with 50 mg/kg ketoconazole oral, 0.167 h, −βgd) was 5.66 ± 5.12 ng/mL and the concentration at 0.25 h ([2]; 250 mg/kg GE with 50 mg/kg ketoconazole oral, 0.25 h, −βgd) was 20.5 ± 21.6 ng/mL. It also gave a concentration at 0.5 h ([2]; 250 mg/kg GE with 50 mg/kg ketoconazole oral, 0.5 h, −βgd) of 14000 ng/mL, a concentration at 1 h ([2]; 250 mg/kg GE with 50 mg/kg ketoconazole oral, 1 h, −βgd) of 54.5 ± 58.3 ng/mL and a concentration at 2 h ([2]; 250 mg/kg GE with 50 mg/kg ketoconazole oral, 2 h, −βgd) of 27900 ng/mL. For the same molecule, the concentration at 3 h ([2]; 250 mg/kg GE with 50 mg/kg ketoconazole oral, 3 h, −βgd) was 45.8 ± 48.2 ng/mL, the concentration at 4 h ([2]; 250 mg/kg GE with 50 mg/kg ketoconazole oral, 4 h, −βgd) was 6.52 ± 1.14 ng/mL and the concentration at 6 h ([2]; 250 mg/kg GE with 50 mg/kg ketoconazole oral, 6 h, −βgd) was 8.07 ± 5.96 ng/mL. The concentration at 8 h ([2]; 250 mg/kg GE with 50 mg/kg ketoconazole oral, 8 h, −βgd) was 3.71 ± 2.46 ng/mL and the concentration at 12 h ([2]; 250 mg/kg GE with 50 mg/kg ketoconazole oral, 12 h, −βgd) was 2.61 ± 1.41 ng/mL.
